Results on 20 compounds are retold here after ChEMBL document CHEMBL3611978, “Synthesis and biological evaluation of novel 7-substituted 3-(4-phenoxyphenyl)thieno[3,2-c]pyridin-4-amines as potent Bruton's tyrosine kinase (BTK) inhibitors” (Bioorg Med Chem, 2015).

pIC50: −log10 of the molar value.

In test [1] the target is Tyrosine-protein kinase BTK (Homo sapiens, UniProt Q06187). In words: Inhibition of BTK (unknown origin) after 1 hr by TR-FRET assay. For orientation: In TR-FRET formats the signal depends on donor and acceptor labels being close together.
Chain of Tyrosine-protein kinase BTK (Q06187 whole entry): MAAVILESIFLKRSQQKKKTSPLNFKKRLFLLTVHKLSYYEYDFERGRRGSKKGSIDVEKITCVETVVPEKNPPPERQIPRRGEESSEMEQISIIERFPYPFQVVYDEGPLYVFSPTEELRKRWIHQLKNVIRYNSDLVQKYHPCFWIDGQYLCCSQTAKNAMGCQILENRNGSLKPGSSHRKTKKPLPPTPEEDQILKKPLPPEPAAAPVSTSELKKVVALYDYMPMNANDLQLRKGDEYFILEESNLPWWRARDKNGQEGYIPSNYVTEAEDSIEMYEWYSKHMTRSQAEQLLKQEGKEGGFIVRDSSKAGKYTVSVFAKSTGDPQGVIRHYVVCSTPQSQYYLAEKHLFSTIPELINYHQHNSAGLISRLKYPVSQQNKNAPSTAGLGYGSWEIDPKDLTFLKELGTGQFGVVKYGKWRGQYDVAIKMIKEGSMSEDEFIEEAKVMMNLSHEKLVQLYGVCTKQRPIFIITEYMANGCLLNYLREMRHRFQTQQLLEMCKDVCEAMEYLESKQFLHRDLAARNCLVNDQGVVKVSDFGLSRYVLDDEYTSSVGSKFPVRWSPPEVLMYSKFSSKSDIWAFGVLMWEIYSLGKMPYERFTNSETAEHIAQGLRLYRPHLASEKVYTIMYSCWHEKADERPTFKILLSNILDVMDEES
Test [2] concerns the target Tyrosine-protein kinase JAK2 (Homo sapiens, UniProt O60674). In words: Inhibition of JAK2 (unknown origin) after 1 hr by ELISA based assay. Background: ELISA stands for enzyme-linked immunosorbent assay.
Test [3] has as its target T1, Tyrosine-protein kinase JAK3 (Homo sapiens, UniProt P52333).
T1 sequence (P52333 whole entry): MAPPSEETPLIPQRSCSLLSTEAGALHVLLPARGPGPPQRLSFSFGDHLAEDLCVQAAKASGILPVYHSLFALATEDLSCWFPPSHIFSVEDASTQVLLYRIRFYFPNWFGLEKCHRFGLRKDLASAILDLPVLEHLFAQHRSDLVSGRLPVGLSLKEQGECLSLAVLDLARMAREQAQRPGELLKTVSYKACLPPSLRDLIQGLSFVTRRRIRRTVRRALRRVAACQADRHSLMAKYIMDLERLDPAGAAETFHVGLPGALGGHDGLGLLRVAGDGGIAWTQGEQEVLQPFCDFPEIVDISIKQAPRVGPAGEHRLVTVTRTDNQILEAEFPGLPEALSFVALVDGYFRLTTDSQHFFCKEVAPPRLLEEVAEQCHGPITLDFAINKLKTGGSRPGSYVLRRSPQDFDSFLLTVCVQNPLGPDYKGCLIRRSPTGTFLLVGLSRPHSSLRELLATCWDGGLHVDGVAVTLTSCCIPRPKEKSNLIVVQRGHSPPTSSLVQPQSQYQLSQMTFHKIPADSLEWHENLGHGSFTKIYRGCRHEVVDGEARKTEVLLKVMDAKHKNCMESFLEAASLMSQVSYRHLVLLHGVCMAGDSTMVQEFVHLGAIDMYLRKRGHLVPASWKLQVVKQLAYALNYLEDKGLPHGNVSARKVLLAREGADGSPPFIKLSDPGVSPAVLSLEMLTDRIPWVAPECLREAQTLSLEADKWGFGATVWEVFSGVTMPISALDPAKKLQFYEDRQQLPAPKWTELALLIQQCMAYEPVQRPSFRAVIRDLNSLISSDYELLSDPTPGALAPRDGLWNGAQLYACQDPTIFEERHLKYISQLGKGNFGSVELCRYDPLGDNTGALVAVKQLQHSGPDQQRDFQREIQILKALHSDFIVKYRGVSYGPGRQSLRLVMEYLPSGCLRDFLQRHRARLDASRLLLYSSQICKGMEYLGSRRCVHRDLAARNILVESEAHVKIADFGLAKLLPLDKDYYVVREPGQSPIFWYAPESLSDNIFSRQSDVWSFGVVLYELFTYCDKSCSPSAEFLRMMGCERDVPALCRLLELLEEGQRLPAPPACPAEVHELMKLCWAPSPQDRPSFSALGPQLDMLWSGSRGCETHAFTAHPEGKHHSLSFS
In words: Inhibition of JAK3 (unknown origin) after 1 hr by ELISA based assay.

The target of test [4] is Vascular endothelial growth factor receptor 2 (Homo sapiens, UniProt P35968). Nature of the test: Inhibition of KDR (unknown origin) after 1 hr by ELISA based assay.
Chain of Vascular endothelial growth factor receptor 2 (P35968 whole entry): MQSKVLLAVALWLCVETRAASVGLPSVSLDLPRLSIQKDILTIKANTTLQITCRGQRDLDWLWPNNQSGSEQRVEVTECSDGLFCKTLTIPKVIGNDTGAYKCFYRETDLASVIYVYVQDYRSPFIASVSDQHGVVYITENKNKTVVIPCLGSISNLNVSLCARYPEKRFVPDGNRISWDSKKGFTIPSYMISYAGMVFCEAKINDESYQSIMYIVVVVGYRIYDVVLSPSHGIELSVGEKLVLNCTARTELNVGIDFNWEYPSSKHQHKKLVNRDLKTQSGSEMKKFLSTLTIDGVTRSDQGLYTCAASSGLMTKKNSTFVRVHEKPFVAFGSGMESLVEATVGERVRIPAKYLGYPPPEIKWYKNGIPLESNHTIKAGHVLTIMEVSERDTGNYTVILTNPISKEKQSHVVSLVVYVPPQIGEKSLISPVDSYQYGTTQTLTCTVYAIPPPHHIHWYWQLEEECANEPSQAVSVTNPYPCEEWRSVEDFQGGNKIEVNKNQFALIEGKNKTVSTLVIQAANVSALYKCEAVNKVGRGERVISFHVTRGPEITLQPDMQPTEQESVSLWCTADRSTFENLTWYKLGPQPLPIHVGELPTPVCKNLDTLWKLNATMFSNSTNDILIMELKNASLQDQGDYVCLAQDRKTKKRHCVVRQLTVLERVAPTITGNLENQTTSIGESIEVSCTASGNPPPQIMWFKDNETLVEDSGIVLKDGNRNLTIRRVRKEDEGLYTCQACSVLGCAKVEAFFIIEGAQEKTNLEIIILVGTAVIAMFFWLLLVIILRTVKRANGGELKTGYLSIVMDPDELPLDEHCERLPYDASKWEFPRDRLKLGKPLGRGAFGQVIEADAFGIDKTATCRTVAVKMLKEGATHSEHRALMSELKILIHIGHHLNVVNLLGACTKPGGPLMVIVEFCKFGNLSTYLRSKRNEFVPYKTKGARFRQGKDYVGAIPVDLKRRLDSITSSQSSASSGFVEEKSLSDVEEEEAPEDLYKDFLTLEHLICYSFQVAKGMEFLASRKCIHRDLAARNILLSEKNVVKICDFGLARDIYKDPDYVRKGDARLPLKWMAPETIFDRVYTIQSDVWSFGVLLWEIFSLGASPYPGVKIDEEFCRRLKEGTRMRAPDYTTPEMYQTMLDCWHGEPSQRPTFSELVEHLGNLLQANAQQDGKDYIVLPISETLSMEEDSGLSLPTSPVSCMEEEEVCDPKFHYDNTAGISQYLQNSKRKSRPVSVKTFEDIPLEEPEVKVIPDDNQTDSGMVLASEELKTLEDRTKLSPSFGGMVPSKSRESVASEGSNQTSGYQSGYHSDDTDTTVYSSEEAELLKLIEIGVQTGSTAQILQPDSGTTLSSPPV
Test [5] deals with Hepatocyte growth factor receptor (Homo sapiens, UniProt P08581). Nature of the test: Inhibition of c-MET (unknown origin) after 1 hr by ELISA based assay.
Chain of Hepatocyte growth factor receptor (P08581 whole entry): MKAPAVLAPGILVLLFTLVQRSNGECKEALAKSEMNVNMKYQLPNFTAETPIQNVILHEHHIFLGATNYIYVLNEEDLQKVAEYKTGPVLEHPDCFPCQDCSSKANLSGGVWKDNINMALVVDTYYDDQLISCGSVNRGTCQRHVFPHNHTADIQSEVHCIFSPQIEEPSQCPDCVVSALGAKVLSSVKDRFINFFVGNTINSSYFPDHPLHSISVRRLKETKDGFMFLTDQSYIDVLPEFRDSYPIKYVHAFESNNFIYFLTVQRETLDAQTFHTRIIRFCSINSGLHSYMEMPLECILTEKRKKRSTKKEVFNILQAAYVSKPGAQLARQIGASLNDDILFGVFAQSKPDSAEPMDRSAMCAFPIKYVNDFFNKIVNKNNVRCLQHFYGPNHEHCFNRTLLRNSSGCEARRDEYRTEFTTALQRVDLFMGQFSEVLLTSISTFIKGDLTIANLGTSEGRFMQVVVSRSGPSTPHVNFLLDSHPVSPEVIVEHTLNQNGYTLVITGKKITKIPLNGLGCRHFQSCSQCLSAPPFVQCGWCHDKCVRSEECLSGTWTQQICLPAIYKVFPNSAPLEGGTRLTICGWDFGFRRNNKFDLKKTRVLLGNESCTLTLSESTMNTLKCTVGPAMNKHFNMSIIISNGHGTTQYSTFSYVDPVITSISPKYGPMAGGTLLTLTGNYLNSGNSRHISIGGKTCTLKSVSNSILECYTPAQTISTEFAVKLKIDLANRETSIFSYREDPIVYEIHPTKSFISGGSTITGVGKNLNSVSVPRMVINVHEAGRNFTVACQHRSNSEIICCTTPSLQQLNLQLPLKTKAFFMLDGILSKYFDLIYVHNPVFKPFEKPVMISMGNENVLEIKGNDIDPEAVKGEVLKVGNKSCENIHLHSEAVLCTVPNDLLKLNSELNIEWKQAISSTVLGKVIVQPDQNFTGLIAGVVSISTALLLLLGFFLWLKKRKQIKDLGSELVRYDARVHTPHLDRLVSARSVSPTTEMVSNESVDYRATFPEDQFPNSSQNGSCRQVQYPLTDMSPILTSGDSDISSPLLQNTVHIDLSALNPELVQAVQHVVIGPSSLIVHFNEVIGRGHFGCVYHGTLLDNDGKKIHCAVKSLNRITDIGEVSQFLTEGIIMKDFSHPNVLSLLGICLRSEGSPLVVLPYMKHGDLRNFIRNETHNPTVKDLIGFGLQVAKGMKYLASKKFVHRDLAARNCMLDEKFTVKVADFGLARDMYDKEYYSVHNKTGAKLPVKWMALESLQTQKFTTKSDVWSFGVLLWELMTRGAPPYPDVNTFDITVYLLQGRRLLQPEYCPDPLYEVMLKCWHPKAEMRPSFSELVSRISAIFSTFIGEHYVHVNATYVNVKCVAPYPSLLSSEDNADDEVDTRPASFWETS

Chain of Tyrosine-protein kinase JAK2 (O60674 whole entry): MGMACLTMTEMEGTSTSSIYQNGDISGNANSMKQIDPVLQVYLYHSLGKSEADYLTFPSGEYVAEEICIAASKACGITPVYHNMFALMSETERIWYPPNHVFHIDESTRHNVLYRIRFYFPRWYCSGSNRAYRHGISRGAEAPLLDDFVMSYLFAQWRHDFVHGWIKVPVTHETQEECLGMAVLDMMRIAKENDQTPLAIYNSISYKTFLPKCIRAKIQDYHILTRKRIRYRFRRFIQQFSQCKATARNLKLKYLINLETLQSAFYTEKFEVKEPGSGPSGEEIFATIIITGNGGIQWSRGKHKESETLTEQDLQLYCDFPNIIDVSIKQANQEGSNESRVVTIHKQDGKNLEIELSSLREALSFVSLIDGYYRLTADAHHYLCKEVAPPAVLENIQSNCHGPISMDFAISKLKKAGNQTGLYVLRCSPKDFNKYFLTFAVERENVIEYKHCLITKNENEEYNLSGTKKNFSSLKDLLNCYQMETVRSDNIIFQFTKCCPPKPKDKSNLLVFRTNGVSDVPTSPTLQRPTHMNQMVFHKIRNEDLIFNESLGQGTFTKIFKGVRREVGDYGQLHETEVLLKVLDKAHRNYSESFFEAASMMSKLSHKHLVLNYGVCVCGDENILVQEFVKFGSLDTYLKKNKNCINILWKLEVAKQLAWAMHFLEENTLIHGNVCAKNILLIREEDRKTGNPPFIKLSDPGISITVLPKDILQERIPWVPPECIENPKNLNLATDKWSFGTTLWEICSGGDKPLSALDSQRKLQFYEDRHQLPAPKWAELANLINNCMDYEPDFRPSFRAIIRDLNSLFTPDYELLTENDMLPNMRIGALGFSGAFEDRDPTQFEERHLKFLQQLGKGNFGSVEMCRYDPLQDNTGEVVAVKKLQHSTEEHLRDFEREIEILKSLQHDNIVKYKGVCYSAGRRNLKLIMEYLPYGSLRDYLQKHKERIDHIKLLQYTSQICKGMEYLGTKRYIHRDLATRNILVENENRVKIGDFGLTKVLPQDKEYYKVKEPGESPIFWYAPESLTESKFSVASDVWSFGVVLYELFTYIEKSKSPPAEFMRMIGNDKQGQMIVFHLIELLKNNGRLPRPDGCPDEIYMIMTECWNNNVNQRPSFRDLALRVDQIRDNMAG

Broadly, the pIC50 is the negative decadic logarithm of the IC50, by convention in mol/L. A high value points to a small IC50. Consider `Nc1ncc(C2CCCNC2)c2scc(-c3ccc(Oc4ccccc4)cc3)c12` (centres undefined), for which, in test [1], the pIC50 is < 5.00.

As for `CC(C)(C)OC(=O)N1C=C(c2cnc(N)c3c(-c4ccc(Oc5ccccc5)cc4)csc23)CCC1`, the pIC50 in test [1] was 5.54.

In test [1], `Nc1ncc(C2=CCNCC2)c2scc(-c3ccc(Oc4ccccc4)cc3)c12` gave a pIC50 of 6.07.

On to `Nc1ncc(C2CCNCC2)c2scc(-c3ccc(Oc4ccccc4)cc3)c12`, for which the pIC50 in test [1] is < 5.00.

In test [1], `Nc1ncc(-c2cnn(CCC(=O)O)c2)c2scc(-c3ccc(Oc4ccccc4)cc3)c12` gave a negative logarithm of the IC50 (pIC50) of 7.68.

For the compound `Nc1ncc(-c2cnn(CC(=O)N3CCCCC3)c2)c2scc(-c3ccc(Oc4ccccc4)cc3)c12`, in test [1], the pIC50 is 7.91.

For `C=CC(=O)N1CCCC(c2cnc(N)c3c(-c4ccc(Oc5ccccc5)cc4)csc23)C1` (centres undefined), the pIC50 in test [1] was 5.64.

On to `CNC(=O)CN1C=C(c2cnc(N)c3c(-c4ccc(Oc5ccccc5)cc4)csc23)CCC1`, for which the pIC50 in test [1] was 6.34.

For the compound `CC(C)(C)OC(=O)N1CC=C(c2cnc(N)c3c(-c4ccc(Oc5ccccc5)cc4)csc23)CC1`, the pIC50 in test [1] was 5.78. This pIC50 lies 0.56 log units lower than the previous one.

`C=CC(=O)N1CC=C(c2cnc(N)c3c(-c4ccc(Oc5ccccc5)cc4)csc23)CC1`: the pIC50 in test [1] was 6.74.

With `CNC(=O)CCn1cc(-c2cnc(N)c3c(-c4ccc(Oc5ccccc5)cc4)csc23)cn1`, in test [1], the pIC50 is 7.59.

Turning to `C=CC(=O)n1cc(-c2cnc(N)c3c(-c4ccc(Oc5ccccc5)cc4)csc23)cn1`, in test [1], the pIC50 was 5.77.

Turning to `CS(=O)(=O)OC1CCCN(C(=O)CCn2cc(-c3cnc(N)c4c(-c5ccc(Oc6ccccc6)cc5)csc34)cn2)C1` (centres undefined), the pIC50 in test [1] is 7.26. Against the preceding compound, the pIC50 is 1.49 log units higher.

In the case of `C#CCn1cc(-c2cnc(N)c3c(-c4ccc(Oc5ccccc5)cc4)csc23)cn1`, in test [1], the pIC50 is 8.13.

As for `C=CC(=O)N1C=C(c2cnc(N)c3c(-c4ccc(Oc5ccccc5)cc4)csc23)CCC1`, the pIC50 in test [1] was 6.47. Against the preceding compound, the pIC50 is 1.66 log units lower.

`C=CC(=O)NCCn1cc(-c2cnc(N)c3c(-c4ccc(Oc5ccccc5)cc4)csc23)cn1` showed a pIC50 in test [1] of 8.00.

`Nc1ncc(-c2cnn(C3CCCNC3=O)c2)c2scc(-c3ccc(Oc4ccccc4)cc3)c12` (centres undefined) gave a pIC50 in test [1] of 8.02.

With `Nc1ncc(C2=CNCCC2)c2scc(-c3ccc(Oc4ccccc4)cc3)c12`, the negative-log IC50 (pIC50) in test [1] is 5.44.

Take `Nc1ncc(-c2cnn(CC(=O)N3CCOCC3)c2)c2scc(-c3ccc(Oc4ccccc4)cc3)c12`: the pIC50 is 7.93 in test [1]; 5.16 in test [2]; 5.51 in test [3]; 6.72 in test [4]; 5.61 in test [5].

As for `CC(=O)Cn1cc(-c2cnc(N)c3c(-c4ccc(Oc5ccccc5)cc4)csc23)cn1`, in test [1], the pIC50 was 8.11.
